Laboratory results reported in patent US20250161403A1, “PEPTIDES AND METHODS OF USE THEREOF IN TREATING OCULAR DISORDERS” (Biomarck Pharmaceuticals, Ltd., priority 2022, published 2025).

What was measured:
Format in all cases: in vivo, Sprague-Dawley rats
[1] = test system: dry eye in the Alacrimal Rat Model; assay: Alacrimal rat dry eye model: clinical examination by biomicroscopy, corneal opacity score; conditions: for Corneal scores compared to sham: 100 μM topical 4 times a day, days 3 and 7
Method: (§1) Dry eye was induced in the left eye of Sprague-Dawley rats by removal of the extraorbital lacrimal gland. […] Topical administration of test compounds was initiated 2 weeks after surgery, given 4 times a day and continued for 24 days. Sham rats (n=6) were untreated. Alacrimal rats (n=6 each) were dosed bilaterally with 10 μL of phosphate buffered saline (PBS), or 100 μM of either of two MARCKS inhibitors: BIO-11006 [high molecular weight] or BIO-91201 [lower molecular weight]. The efficacy of these MARCKS inhibitor peptides was assessed via clinical examination using biomicroscopy and phenol red test (PRT) tear volume with the observers masked to the treatments. Examinations were at baseline, 2 weeks after surgery, and on days 1, 3, 7, 14, 21, and 24 after initiating dosing. Clinical scores for corneal opacity, vascularization, and corneal fluorescein (FL) retention were recorded at each examination.
Corneal scores were assessed as in the table below.

[2] = test system: dry eye in the Alacrimal Rat Model; assay: Alacrimal rat dry eye model: corneal fluorescein (FL) retention score; conditions: 100 μM topical 4 times a day
Method: as §1
PRT was higher in MARCKs inhibitor-dosed groups compared to PBS groups on days 14, 21, and 24 after surgery (p<0.02; t test). Fluorescein retention score was measured as shown in the table below, and the scores and statistical analyses are provided in FIG. 2.
Fluorescein retention scores.

[3] = test system: dry eye in the Alacrimal Rat Model; assay: Alacrimal rat dry eye model: phenol red test (PRT) tear volume; conditions: overall conclusion of the study; 100 μM topical
Method: as §1
FIG. 3 provides the results of the phenol red test (PRT), showing tear measurement in mm/20 s averaged for each group.

| Substance | Corneal scores compared to sham [1] | corneal opacity scores ([1]; 100 μM, 10 μL topical 4 times a day for 24 days, relative to PBS and BIO-11006 dosed groups) | effect on indicators of dry eye disease including corneal scores and corneal fluorescein retention ([1]; overall conclusion of the study, 100 μM topical) | FL retention scores versus sham eyes ([2]; through day 14) | corneal fluorescein (FL) retention ([2]; versus PBS or BIO-11006 dosed eyes, p<0.02) | tear production [3] |
| --- | --- | --- | --- | --- | --- | --- |
| Ac-AKGE-OH [BIO-91201] | no difference between sham and BIO-91201 | reduced corneal opacity scores relative to the PBS and BIO-11006 dosed groups | significant positive effect | not significantly different than sham eyes | significantly lower FL retention than PBS or BIO-11006 dosed eyes | improvement in tear production |
| BIO-11006: N-terminal acetylated peptide of SEQ ID NO 106 (GAQFSKTAAK), free C-terminus; MARCKS inhibitor, high molecular weight (Ac-GAQFSKTAAK-OH) | significantly elevated | – | – | – | – | – |
